Where a name gives a salt, the structure may show the parent alone.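 In this assay, cells in 96-well plates receive the compound at five concentrations for 48 hours. Endpoints are linearly interpolated between the surrounding concentrations. GI50 = concentration required for 50% inhibition of growth.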 The source made the active and inactive calls. No stated cut-off is given here; in the data, active = GI50 up to about 1.1 µM and inactive = higher. Where only a bound is given, the exact number is not on record here.

Among the test systems are HCC 2998; ACHN; BT-549; MDA-N; NCI/ADR-RES; Hs-578T; SF-295; OVCAR-5; RXF 393; MCF7; MOLT-4; HL-60; HOP-92; SK-MEL-2; SF-268; LOX IMVI; COLO 205; T47D; K562.
What all share (assay): growth of human tumour cells (NCI), 48 h

For the molecule `BrCCC[P+](c1ccccc1)(c1ccccc1)c1ccccc1`, the GI50 was > 68.4 µM (inactive) in the assay with HCC 2998; > 100 µM (inactive) with ACHN; 8.39 µM (inactive) in the assay on BT-549; 8.2 µM (inactive) in the assay on MDA-N; > 100 µM (inactive) with NCI/ADR-RES; 15.5 µM (inactive) in the assay on Hs-578T. For the same molecule, the GI50 is 40.8 µM (inactive) in the assay with SF-295; 56.1 µM (inactive) with OVCAR-5; 2.89 µM (inactive) with RXF 393; 6.22 µM (inactive) in the assay with MCF7; 9.66 µM (inactive) in the assay on MOLT-4; 1.18 µM (inactive) in the assay on HL-60. In addition, the GI50 is 8 µM (inactive) in the assay on HOP-92; 26.7 µM (inactive) in the assay with SK-MEL-2; 16.7 µM (inactive) in the assay with SF-268; 0.736 µM (active) in the assay on LOX IMVI; 1.61 µM (inactive) in the assay on COLO 205; 5.85 µM (inactive) with T47D. Also, the GI50 in the assay with K562 was 3.16 µM (inactive).

Turning to `CN(CCCCN1CCCC1)CCCN(C)C(=O)Cc1ccc(Cl)c(Cl)c1`, the GI50 is 3.62 µM (inactive) with HCC 2998; 35.7 µM (inactive) in the assay with ACHN; 16 µM (inactive) with BT-549; 4.27 µM (inactive) with MDA-N; > 100 µM (inactive) in the assay with NCI/ADR-RES; 20.6 µM (inactive) in the assay on Hs-578T. Also, the GI50 in the assay on SF-295 is 19.3 µM (inactive); in the assay on OVCAR-5, 29.6 µM (inactive); in the assay with RXF 393, 12.7 µM (inactive); with MCF7 it was 17.4 µM (inactive); with MOLT-4, 8.91 µM (inactive); in the assay with HL-60 it was 15.3 µM (inactive). Besides, the GI50 in the assay with HOP-92 was 4.57 µM (inactive); in the assay with SK-MEL-2, 7.94 µM (inactive); in the assay on SF-268 it was 26.7 µM (inactive); with LOX IMVI, 11.9 µM (inactive); in the assay with COLO 205, 11.9 µM (inactive); in the assay on T47D, 21 µM (inactive). Besides, in the assay on K562, the GI50 is 3.05 µM (inactive).

For `COc1cc(O)c2c(=O)c3ccccc3n(C)c2c1`, the GI50 with HCC 2998 is > 100 µM (inactive); in the assay on ACHN it was 14 µM (inactive); in the assay with BT-549, 52.2 µM (inactive); in the assay on MDA-N, > 100 µM (inactive); with NCI/ADR-RES it was 32.7 µM (inactive); in the assay with Hs-578T, 13.4 µM (inactive). The GI50 is 27.7 µM (inactive) with SF-295; > 100 µM (inactive) in the assay on OVCAR-5; 14.9 µM (inactive) with RXF 393; > 100 µM (inactive) in the assay with MCF7; 8.43 µM (inactive) in the assay with MOLT-4; > 100 µM (inactive) with HL-60. The GI50 in the assay on HOP-92 is 46.1 µM (inactive); in the assay on SK-MEL-2 it was > 100 µM (inactive); in the assay on SF-268, 53.7 µM (inactive); in the assay with LOX IMVI it was 84.5 µM (inactive); with COLO 205 it was > 100 µM (inactive); with T47D it was > 100 µM (inactive). In addition, the GI50 with K562 was > 100 µM (inactive).

As to `NS(=O)(=O)c1ccc(NCc2cnc3ccccc3n2)cc1`, the GI50 in the assay on HCC 2998, in the assay on ACHN, in the assay with BT-549, in the assay with MDA-N, with NCI/ADR-RES and with Hs-578T was > 100 µM (inactive) in each case. In addition, the GI50 in the assay with SF-295, in the assay with OVCAR-5, in the assay on RXF 393, in the assay on MCF7, with MOLT-4 and in the assay with HL-60 was > 100 µM (inactive) throughout. Besides, the GI50 in the assay on HOP-92, in the assay with SK-MEL-2, in the assay with SF-268, in the assay with COLO 205, in the assay with T47D and with K562 was > 100 µM (inactive) throughout.

For the molecule `COc1ccc(C2=CC(C(C)=C(C(N)=O)C(N)=O)C=C(c3ccc(Br)cc3)C2)c(OC)c1` (stereo unspecified), the GI50 with HCC 2998 was > 100 µM (inactive); in the assay with ACHN it was > 100 µM (inactive); in the assay with BT-549, > 100 µM (inactive); in the assay on MDA-N, > 100 µM (inactive); with NCI/ADR-RES, > 100 µM (inactive); in the assay on Hs-578T, 63.1 µM (inactive). In addition, the GI50 with SF-295, in the assay on OVCAR-5, with RXF 393, in the assay with MCF7, in the assay on MOLT-4 and in the assay on HL-60 was > 100 µM (inactive) throughout. Also, the GI50 in the assay with HOP-92 was 31.8 µM (inactive); with SK-MEL-2, > 100 µM (inactive); with SF-268, > 100 µM (inactive); with LOX IMVI, > 100 µM (inactive); in the assay on COLO 205, > 100 µM (inactive); in the assay with T47D it was 39.1 µM (inactive). In the assay with K562, the GI50 is > 100 µM (inactive).

Regarding `COc1ccc(-n2cnc3c(N)nc(N)nc32)cc1`, the GI50 is 64.4 µM (inactive) with HCC 2998; > 100 µM (inactive) with ACHN; > 100 µM (inactive) in the assay with BT-549; > 100 µM (inactive) in the assay on MDA-N; > 100 µM (inactive) in the assay on NCI/ADR-RES; 25.6 µM (inactive) in the assay on Hs-578T. In addition, the GI50 was > 100 µM (inactive) with SF-295; > 100 µM (inactive) with OVCAR-5; 43.2 µM (inactive) in the assay with RXF 393; 90.8 µM (inactive) in the assay on MCF7; 34 µM (inactive) in the assay on MOLT-4; > 100 µM (inactive) in the assay with HOP-92. In addition, the GI50 in the assay on SK-MEL-2 is 54.2 µM (inactive); in the assay on SF-268 it was > 100 µM (inactive); in the assay with COLO 205 it was > 100 µM (inactive); in the assay with T47D it was > 100 µM (inactive).

For the molecule `CCN1CSC(=S)N(CC)C1`, the GI50 in the assay on HCC 2998 was > 100 µM (inactive); in the assay with ACHN, > 100 µM (inactive); in the assay on BT-549, > 100 µM (inactive); in the assay with MDA-N, 79.8 µM (inactive); in the assay on NCI/ADR-RES, > 100 µM (inactive); in the assay with Hs-578T, > 100 µM (inactive). Besides, the GI50 was > 100 µM (inactive) in the assay on SF-295; > 100 µM (inactive) with OVCAR-5; > 100 µM (inactive) in the assay with RXF 393; 41 µM (inactive) in the assay with MCF7; 34.4 µM (inactive) in the assay with MOLT-4; 15 µM (inactive) in the assay on HL-60. Moreover, the GI50 in the assay on HOP-92 is > 100 µM (inactive); in the assay on SK-MEL-2, > 100 µM (inactive); in the assay on SF-268 it was > 100 µM (inactive); with COLO 205, 54.8 µM (inactive); in the assay with T47D it was > 100 µM (inactive); with K562 it was > 100 µM (inactive).

As for `O=Cc1ccc(Oc2c3ccccc3nc3ccccc23)cc1`, the GI50 was 14.8 µM (inactive) with HCC 2998; 3.61 µM (inactive) in the assay on ACHN; 14.8 µM (inactive) with BT-549; 3.51 µM (inactive) with MDA-N; 10.2 µM (inactive) with NCI/ADR-RES; 2.53 µM (inactive) with Hs-578T. Also, the GI50 in the assay with SF-295 is 19.6 µM (inactive); with OVCAR-5, 4.29 µM (inactive); with RXF 393, 7.98 µM (inactive); in the assay with MCF7, 4.42 µM (inactive); in the assay with MOLT-4 it was < 0.01 µM (active); in the assay with HL-60, < 0.01 µM (active). Further, the GI50 was 4.74 µM (inactive) in the assay with HOP-92; 4.5 µM (inactive) in the assay on SF-268; 2.9 µM (inactive) in the assay on LOX IMVI; 3.42 µM (inactive) in the assay with COLO 205; 3.66 µM (inactive) in the assay on T47D.

With `O=C1C(=Cc2ccco2)C(=O)C2CCCCC12` (stereo unspecified), the GI50 in the assay with HCC 2998, with ACHN, with BT-549, in the assay on MDA-N, with NCI/ADR-RES and with Hs-578T was > 100 µM (inactive) throughout. Also, the GI50 in the assay on SF-295, in the assay with OVCAR-5, in the assay with RXF 393, in the assay on MCF7, in the assay with MOLT-4 and with HOP-92 was > 100 µM (inactive) each time. Also, the GI50 is > 100 µM (inactive) in the assay with SK-MEL-2; > 100 µM (inactive) in the assay on SF-268; > 100 µM (inactive) in the assay on LOX IMVI; > 100 µM (inactive) in the assay on COLO 205; > 100 µM (inactive) in the assay on T47D; 17.6 µM (inactive) in the assay with K562.

Regarding `C[C@@H]1C[C@H]2OC(=O)[C@@]3(C)CCC[C@@](C)([C@@H]23)[C@@]1(O)CCc1ccoc1`, the GI50 is > 100 µM (inactive) with HCC 2998; > 100 µM (inactive) in the assay on ACHN; > 49.8 µM (inactive) in the assay on BT-549; > 100 µM (inactive) in the assay with MDA-N; > 100 µM (inactive) in the assay with NCI/ADR-RES; > 100 µM (inactive) with Hs-578T. Besides, the GI50 with SF-295 is > 100 µM (inactive); with OVCAR-5, > 100 µM (inactive); with RXF 393, > 100 µM (inactive); with MCF7, > 80.2 µM (inactive); in the assay with MOLT-4 it was 38 µM (inactive); with HL-60 it was 29.6 µM (inactive). The GI50 with HOP-92, with SK-MEL-2, in the assay with SF-268, in the assay with LOX IMVI, in the assay with COLO 205 and with T47D was > 100 µM (inactive) throughout. Besides, the GI50 with K562 was 42.2 µM (inactive).

Consider `CC[C@@H]1C(=O)OC[C@@H]1Cc1cncn1C` [PILOCARPINE HYDROCHLORIDE], for which the GI50 in the assay with HCC 2998, with ACHN, with BT-549, in the assay with MDA-N, in the assay with NCI/ADR-RES and in the assay with Hs-578T was > 100 µM (inactive) in each case. Besides, the GI50 in the assay with SF-295, in the assay with OVCAR-5, with RXF 393, with MCF7, with MOLT-4 and in the assay with HL-60 was > 100 µM (inactive) in each case. In addition, the GI50 in the assay on HOP-92, in the assay on SK-MEL-2, in the assay on SF-268, in the assay on LOX IMVI, in the assay with COLO 205 and with T47D was > 100 µM (inactive) in each case. Further, the GI50 with K562 was > 100 µM (inactive).
